# Source: BindingDB's records for patent US20240124439 (Pfizer, 2024)
# Target: T1, Tyrosine-protein kinase ITK/TSK (Homo sapiens, UniProt Q08881)
# T1 sequence (Q08881 whole entry): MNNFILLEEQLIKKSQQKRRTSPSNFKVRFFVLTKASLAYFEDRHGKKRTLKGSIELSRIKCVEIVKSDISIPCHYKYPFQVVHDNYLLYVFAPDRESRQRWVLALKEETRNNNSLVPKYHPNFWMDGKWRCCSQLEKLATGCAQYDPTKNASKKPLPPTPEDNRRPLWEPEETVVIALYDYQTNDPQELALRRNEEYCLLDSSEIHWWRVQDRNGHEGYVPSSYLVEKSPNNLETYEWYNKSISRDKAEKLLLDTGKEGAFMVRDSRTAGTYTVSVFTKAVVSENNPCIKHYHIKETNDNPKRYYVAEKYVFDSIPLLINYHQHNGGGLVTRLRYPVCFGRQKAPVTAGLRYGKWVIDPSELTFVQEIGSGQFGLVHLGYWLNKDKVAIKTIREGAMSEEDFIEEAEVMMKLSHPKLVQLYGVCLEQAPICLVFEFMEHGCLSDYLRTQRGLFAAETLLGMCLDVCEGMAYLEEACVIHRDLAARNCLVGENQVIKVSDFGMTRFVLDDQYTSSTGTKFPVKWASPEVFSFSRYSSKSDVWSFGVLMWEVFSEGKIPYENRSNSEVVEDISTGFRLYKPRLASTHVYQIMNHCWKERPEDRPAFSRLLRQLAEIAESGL
# Experiment: ITK Enzyme Assay
# Experimental: 1.0 M HEPES Buffer pH 7.5 solution was prepared as follows: 238.3 g HEPES free acid (Sigma) and 800 mL of water were combined, and the mixture was stirred until complete dissolution. The pH was adjusted to 7.5 via titration with 5N NaOH and the volume adjusted to 1000 mL. The solution was filtered and sterilized.ITK assay buffer was prepared as follows: 50 mL of HPLC-grade water was treated with 2 mL of 1.0 M HEPES Buffer, 500 μL of 2% Gelatin (Sigma), 1.0 mL of aqueous MgCl2 solution (1.0 M), and 1.0 mL of aqueous glutathione solution (0.5 M), and the solution was mixed. The solution was brought to 99 mL in a graduated cylinder by addition of water and sterilized through a 0.2 μm filter. 0.1 mL of Brij-35 Surfact-Amps Detergent Solution (10% w/v aqueous solution, ThermoFisher) and 1.0 mL of ATP (Teknova,100 mM) were added and the solution was mixed.Preparation of 1.33 ITK enzyme solution was as follows: 49.99 mL of ITK assay buffer was treated with 4.1 μL of ITK enzyme (ITK FL (N-Flag and C-His tagged, […]) Lake Pharma, 0.25 mg/ml in a buffer containing 25 mM Tris pH 7.8, 150 mM NaCl, 10% glycerol and 2 mM TCEP) and the mixture was gently agitated. The resulting solution was stored on ice. 30 Minutes prior to use, the enzyme solution was removed from ice and equilibrated to RT by incubation in a RT water bath.
row,SMILES,IC50
1,"C[C@@H](C(=O)N(C)c1cnc2[nH]c(-c3n[nH]c4c3CCC(C)(C)C4)nc2c1)N1CCOCC1 [US20240124439, Example 14]",0.147 µM
2,"CC(C)(C(=O)Nc1cnc2[nH]c(-c3n[nH]c4c3C[C@@H]3C[C@]3(C)C4)nc2c1)N1CCOCC1 [US20240124439, Example 16]",0.747 µM
3,"CCN(C(=O)[C@H](C)C1CCOCC1)c1cnc2[nH]c(-c3n[nH]c4c3CCC(C)(C)C4)nc2c1 [US20240124439, Example 18]",0.028 µM
4,"C[C@H](C(=O)N(C)c1cnc2[nH]c(-c3n[nH]c4c3C[C@@H]3C[C@]3(C)C4)nc2c1)N1CCOCC1 [US20240124439, Example 26]",0.136 µM
5,"C[C@@H](C(=O)Nc1ccc2[nH]c(-c3n[nH]c4c3CCC(C)(C)C4)nc2c1)N1CCOCC1 [US20240124439, Example 33]",2 µM
6,"CCc1nc2[nH]c(-c3n[nH]c4c3C[C@@H]3C[C@]3(C)C4)nc2cc1N(C)C(=O)CN1CCOCC1 [US20240124439, Example 37]",0.147 µM
7,"CN(C(=O)CC1CC(F)(F)C1)c1cnc2nc(-c3n[nH]c4c3C[C@@H]3C[C@]3(C)C4)[nH]c2c1 [US20240124439, Example 48]",0.066 µM
8,"CN(C(=O)CC1CC2(CCC2)C1)c1cnc2nc(-c3n[nH]c4c3C[C@@H]3C[C@]3(C)C4)[nH]c2c1 [US20240124439, Example 49]",0.025 µM
9,"CN(C(=O)CC1CC2(C1)CC2(F)F)c1cnc2nc(-c3n[nH]c4c3C[C@@H]3C[C@]3(C)C4)[nH]c2c1 (stereo not given in full) [US20240124439, Example 50]",0.033 µM
10,"CN(C(=O)CC1CC2(C1)CC(F)(F)C2)c1cnc2nc(-c3n[nH]c4c3C[C@@H]3C[C@]3(C)C4)[nH]c2c1 [US20240124439, Example 54]",0.062 µM
